Source: US8183264B2, “Pyridine derivative substituted by heteroaryl ring, and antifungal agent comprising the same” (Eisai R&D Managment Co., Ltd., priority 2006, dated 2012)
Values after ≈ are worked out from the molar mass of the structure shown.

Experiments:
[1] = test system: A. fumigatus Tsukuba strain; experiment: Anti-Aspergillus activity (MIC measurement); type: cell-based; details: minimum inhibitory concentration (MIC) by visual inspection, RPMI 1640, 42 to 48 hours at 35° C.
Method: (§1) 1. Anti-Candida Activity and Anti-Aspergillus Activity
(§2) (1) Preparation of Fungal Sample
(§3) For the C. albicans CAF2-1 strain, a fungal suspension from a standing culture for 48 hours at 30° C. in a Sabouraud dextrose liquid culture medium (SDB) was diluted with RPMI 1640 medium to adjust a fungal suspension of 1.2×10^3 cells/mL. For the A. fumigatus Tsukuba strain, −80° C. stored strain was diluted with RPMI 1640 medium to adjust to a fungal suspension of 4.5×10^3 cells/mL.
(§4) (2) Preparation of an Agent Dilution Plate
(§5) Using a U-bottomed 96-well plate, 8 samples/plate (A to H) of sample dilution solutions were prepared. On the 2nd to 12th rows were dispensed 10 μL of dimethyl sulfoxide solution. Weighed sample was dissolved in dimethyl sulfoxide to prepare a 2.5 mg/mL solution, 20 μL of this solution was added to the first row of the prepared plate, and 12 steps of two-fold step dilutions (10 μL of solution+10 μL of dimethyl sulfoxide solution) were performed on the plate. This sample dilution solution was dispensed in an amount of 1 μL into a flat-bottomed 96-well plate for MIC measurement to prepare a sample dilution plate.
(§6) (3) Inoculation of Fungal Suspension and Culture
(§7) The fungal suspension prepared in (1) was used in an amount of 99 μL/well to inoculate the flat-bottomed 96-well plate containing 1 μL/well of the test compound dilution prepared in (2), and standing culture was performed aerobically for 42 to 48 hours at 35° C.
(§8) The following representative compounds prepared in the examples were measured for anti-Candida activity and anti-Aspergillus activity by measurement method in (1).

[2] = test system: C. albicans E81022 strain; experiment: Experimental systemic candidal infection model in mice; type: in vivo; details: peroral, 3 times every 4 hours, female ICR mice infected iv with C. albicans E81022, observed until 14 days after infection
Method: 2. Experimental Systemic Candidal Infection Model in Mice (1) Preparation of Fungal Inoculant
A standing culture of C. albicans E81022 strain was carried out for 48 hours at 30° C. in Sabouraud dextrose agar medium (SDA), and the recovered fungal cells were suspended in sterilized physiological saline. By counting the fungal number on cytometry plate, the suspension was diluted to 2×10^7 cells/mL with sterilized physiological saline to serve fungal inoculum.
The fungal inoculum was used in amounts of 0.2 mL to inoculate 4.5 to 5.5 week-old female ICR mice in the tail vein (4×10^6 cells/mouse).
From 0.5 to 1 hour after fungal inoculation, 0.2 mL of agent solution (dissolved or suspended in sterilized physiological saline containing 6.5% dimethyl sulfoxide and 3.5% Tween 80) was administered into the stomach using a peroral probe, 3 times every 4 hours. The agent concentration was 2.5 or 10 mg/kg, and the number of animal in one group was five animals.
(4) Determination of Effects
The protective effect was determined by observing life/death until 14 days after infection and calculating the mean survival days.

[3] = test system: C. albicans CAF2-1 strain; experiment: Anti-Candida activity (MIC measurement); type: cell-based; details: CAF21STRAIN, minimum inhibitory concentration (MIC) by visual inspection, RPMI 1640, 42 to 48 hours at 35° C.
Method: as §1, §2, §3, §4, §5, §6, §7, §8

Row | SMILES | MIC [1] [µg/mL] | Mean Survival Day (MSD) ([2]; Dose 2.5 mg/kg) [days] | Mean Survival Day (MSD) ([2]; Dose 10 mg/kg) [days] | MIC [3] [µg/mL]
1 | Nc1ncccc1-c1nnc(Cc2ccc(OCc3ccccc3)cc2)o1 [Example 9] | 0.78 (≈ 2.18 µM) | 7.8 | 10.8 | 0.39 (≈ 1.09 µM)
2 | Cc1ccc(Cc2ccc(Cn3nnc(-c4cccnc4N)n3)cc2)o1 [Example 53, 3-(2-(4-(5-Methyl-furan-2-ylmethyl)-benzyl)-2H-tetrazol-5-yl)-pyridin-2-ylamine] | 0.78 (≈ 2.25 µM) | 7.6 | 13.8 | 0.39 (≈ 1.13 µM)
3 | Nc1ncccc1-c1nnn(Cc2ccc(OCc3ccccc3)cc2)n1 [Example 5, 3-(2-(4-Benzyloxy-benzyl)-2H-tetrazol-5-yl)-pyridin-2-ylamine] | 1.56 (≈ 4.35 µM) | – | 11.8 | 0.78 (≈ 2.18 µM)
4 | Nc1ccc(-c2nnn(Cc3ccc(OCc4ccccn4)cc3)n2)c(N)n1 [Example 27, 3-(2-(4-(Pyridin-2-ylmethoxy)-benzyl)-2H-tetrazol-5-yl)-pyridin-2,6-diamine] | 0.78 (≈ 2.08 µM) | 5.6 | 12 | 0.2 (≈ 0.534 µM)
5 | CCCCOCc1ccc(Cn2cc(-c3ccc(N)nc3N)nn2)cc1 [Example 42, 3-(1-(4-Butoxymethyl-benzyl)-1H-[1,2,3]triazol-4-yl)-pyridin-2,6-diamine] | 0.78 (≈ 2.21 µM) | – | 13.6 | 0.2 (≈ 0.567 µM)
6 | CCCCOCc1ccc(Cn2cc(-c3ccc(COC)nc3N)nn2)cc1 [Example 41, 3-[1-(4-Butoxymethyl-benzyl)-1H-[1,2,3]triazol-4-yl]-6-methoxymethyl-pyridin-2-ylamine] | 1.56 (≈ 4.09 µM) | 6.2 | 11.2 | 0.39 (≈ 1.02 µM)
